Active and inactive are the calls of the source. The rule behind the calls is not given here.
Experiments:
Artemia = test: Toxicity in brine shrimp; type: organism-based; conditions: in vivo
[1] = Inhibition of PKC

| Structure (SMILES) | Activity (Artemia) | inhibition [1] |
| --- | --- | --- |
| CC(=O)OC[C@]12[C@H](O)[C@H](OC(=O)c3cccnc3)[C@@H]3[C@@H](OC(C)=O)[C@@]14O[C@@]3(C)COC(=O)c1cccnc1[C@@H](C)[C@H](C)C(=O)O[C@@H]([C@H](OC(=O)C(C)C)[C@@H]2OC(C)=O)[C@]4(C)O [PUTTERINE B] | Toxic | inactive |
| CC(=O)OC[C@]12[C@H](O)[C@H](OC(=O)c3cccnc3)[C@@H]3[C@@H](OC(C)=O)[C@@]14O[C@@]3(C)COC(=O)c1cccnc1[C@@H](C)[C@H](C)C(=O)O[C@@H]([C@H](OC(C)=O)[C@@H]2OC(C)=O)[C@]4(C)O [PUTTERINE A] | Toxic | inactive |

From ChEMBL document CHEMBL1150839, “Dihydroagarofuran sesquiterpene alkaloids from Maytenus putterlickoides” (J Nat Prod, 2001)
